How the values were obtained:
[1] = test system: Phospho-SLP-76 (Ser376) in Jurkat cells; test: Phospho-SLP-76 (Ser376) HTRF assay in anti-CD3 stimulated Jurkat cells; assay type: cell-based; conditions: Homo sapiens, Jurkat, 30 min pre-treatment, anti-CD3 stimulation 15 min, read-out: pSLP76 IC50
Summary of the method: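 Jurkat cells pre-treated 30 min with compound (11-point 3-fold series, final 10 μM to 0.1 nM, 0.1% DMSO), then stimulated 15 min at 37° C with 200 μg/mL F(ab)2-complexed anti-CD3 (UCTH1). Lysate phospho-SLP-76 read by HTRF sandwich after overnight RT incubation; IC50 from four-parameter fit.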

[2] = target: Human recombinant full-length GST-tagged RPS6KA2 (RSK3) (Homo sapiens (Human), UniProt Q15349); test: Biochemical selectivity kinase assay (Z'-LYTE FRET), RSK3; conditions: for IC50: 10 μM ATP (~Km); for RSK3 IC50/HPK1 Ki: ratio of the RSK3 IC50 to the HPK1 Ki
Text: (§1) Biochemical Selectivity Kinase Assay.
(§2) The dose response curve was curve fit to model number 205 (sigmoidal dose-response model). A ratio of the PRKD2 IC50 to the HPK1 Ki and a ratio of the RSK3 IC50 to the HPK1 Ki, is provided in the respective columns adjacent to the columns for PRKD2 IC50 and RSK3 IC50.

[3] = target: Human recombinant full-length GST-tagged PRKD2 (PKD2) (Homo sapiens (Human), UniProt Q9BZL6); test: Biochemical selectivity kinase assay (Z'-LYTE FRET), PRKD2; conditions: for IC50: 25 μM ATP (~Km); for PRKD2 IC50/HPK1 Ki: ratio of the PRKD2 IC50 to the HPK1 Ki
Text: as §1, §2

[4] = target: human full-length autophosphorylated recombinant HPK1 (Homo sapiens (Human), UniProt Q92918); test: HPK1 biochemical enzyme assay (chelation-enhanced fluorescence, CHEF); conditions: 0.5 nM HPK1, 45 μM ATP, Morrison fit
Summary of the method: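 Autophosphorylated full-length human HPK1 from Sf21 cells, His-tag removed by TEV, residual N-terminal Gly-Ser. Activity measured with a C-Sox fluorescent peptide substrate (CHEF); initial velocities followed at λex 360/λem 500 nm, 30 °C for 15 min.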

Sequence of Human recombinant full-length GST-tagged PRKD2 (PKD2) (Q9BZL6 whole entry): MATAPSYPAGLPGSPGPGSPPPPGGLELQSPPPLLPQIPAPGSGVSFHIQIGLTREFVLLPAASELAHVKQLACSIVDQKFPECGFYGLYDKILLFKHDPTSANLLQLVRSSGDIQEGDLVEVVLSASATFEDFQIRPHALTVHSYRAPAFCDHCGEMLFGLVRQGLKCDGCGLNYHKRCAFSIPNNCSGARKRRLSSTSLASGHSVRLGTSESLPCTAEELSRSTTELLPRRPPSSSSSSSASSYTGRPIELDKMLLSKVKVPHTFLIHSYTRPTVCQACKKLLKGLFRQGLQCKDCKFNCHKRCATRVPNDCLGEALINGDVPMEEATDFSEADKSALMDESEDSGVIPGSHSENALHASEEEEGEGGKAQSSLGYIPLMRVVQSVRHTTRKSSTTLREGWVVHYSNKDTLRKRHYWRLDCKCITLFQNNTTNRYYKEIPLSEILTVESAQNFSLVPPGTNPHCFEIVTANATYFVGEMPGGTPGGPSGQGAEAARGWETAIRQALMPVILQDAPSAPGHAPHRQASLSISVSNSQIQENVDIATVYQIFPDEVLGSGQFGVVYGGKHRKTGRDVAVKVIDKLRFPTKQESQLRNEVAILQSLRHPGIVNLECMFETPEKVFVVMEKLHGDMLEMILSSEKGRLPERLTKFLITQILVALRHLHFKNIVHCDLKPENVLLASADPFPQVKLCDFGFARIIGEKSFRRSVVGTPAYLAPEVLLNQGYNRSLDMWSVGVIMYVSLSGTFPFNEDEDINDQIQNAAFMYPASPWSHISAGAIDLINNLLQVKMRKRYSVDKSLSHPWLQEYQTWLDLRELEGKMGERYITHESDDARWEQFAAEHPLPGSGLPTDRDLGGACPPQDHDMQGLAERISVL
Sequence of Human recombinant full-length GST-tagged RPS6KA2 (RSK3) (Q15349 whole entry): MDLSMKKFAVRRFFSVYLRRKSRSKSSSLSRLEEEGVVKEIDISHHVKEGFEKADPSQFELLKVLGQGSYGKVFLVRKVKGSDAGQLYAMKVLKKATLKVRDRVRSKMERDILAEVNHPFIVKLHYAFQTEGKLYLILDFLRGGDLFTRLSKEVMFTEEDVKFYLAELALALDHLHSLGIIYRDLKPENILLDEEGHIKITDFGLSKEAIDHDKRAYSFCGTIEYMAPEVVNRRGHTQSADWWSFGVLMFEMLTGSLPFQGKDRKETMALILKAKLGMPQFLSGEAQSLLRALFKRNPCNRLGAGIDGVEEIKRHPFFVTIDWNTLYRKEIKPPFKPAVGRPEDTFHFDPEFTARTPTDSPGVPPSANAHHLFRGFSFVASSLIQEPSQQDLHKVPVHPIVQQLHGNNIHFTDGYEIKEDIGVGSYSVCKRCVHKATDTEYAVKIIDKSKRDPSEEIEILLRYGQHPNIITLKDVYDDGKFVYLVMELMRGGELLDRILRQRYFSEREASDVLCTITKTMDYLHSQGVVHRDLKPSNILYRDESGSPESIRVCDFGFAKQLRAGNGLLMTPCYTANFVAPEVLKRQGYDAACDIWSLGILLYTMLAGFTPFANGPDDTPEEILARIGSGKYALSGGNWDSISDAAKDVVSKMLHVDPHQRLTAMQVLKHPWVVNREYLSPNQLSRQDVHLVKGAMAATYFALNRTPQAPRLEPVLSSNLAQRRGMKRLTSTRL
Sequence of human full-length autophosphorylated recombinant HPK1 (Q92918 other isoform, or with tags, fused parts or gaps): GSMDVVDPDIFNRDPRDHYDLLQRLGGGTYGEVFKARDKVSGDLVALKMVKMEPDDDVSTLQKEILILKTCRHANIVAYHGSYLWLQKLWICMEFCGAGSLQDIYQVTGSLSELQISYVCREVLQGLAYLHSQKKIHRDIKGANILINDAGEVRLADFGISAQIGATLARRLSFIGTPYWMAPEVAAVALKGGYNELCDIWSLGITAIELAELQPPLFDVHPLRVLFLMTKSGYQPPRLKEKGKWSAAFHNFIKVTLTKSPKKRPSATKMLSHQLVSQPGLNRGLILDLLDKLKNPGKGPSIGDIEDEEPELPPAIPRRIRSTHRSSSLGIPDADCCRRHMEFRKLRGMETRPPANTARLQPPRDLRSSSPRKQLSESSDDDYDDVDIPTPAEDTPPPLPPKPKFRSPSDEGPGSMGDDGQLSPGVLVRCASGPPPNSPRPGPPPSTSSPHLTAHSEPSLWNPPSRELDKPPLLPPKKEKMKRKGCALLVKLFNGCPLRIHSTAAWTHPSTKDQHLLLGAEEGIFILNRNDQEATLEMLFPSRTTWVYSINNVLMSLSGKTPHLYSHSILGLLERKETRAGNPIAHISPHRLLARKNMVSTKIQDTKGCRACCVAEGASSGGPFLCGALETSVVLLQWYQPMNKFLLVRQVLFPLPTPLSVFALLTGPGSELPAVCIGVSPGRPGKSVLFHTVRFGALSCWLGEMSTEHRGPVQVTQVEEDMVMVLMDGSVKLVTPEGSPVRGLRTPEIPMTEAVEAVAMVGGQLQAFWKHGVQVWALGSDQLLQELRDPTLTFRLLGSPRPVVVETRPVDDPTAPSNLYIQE

Row | SMILES | IC50 [1] | IC50 [2] | RSK3 IC50/HPK1 Ki [2] | IC50 [3] | PRKD2 IC50/HPK1 Ki [3] | Ki [4]
1 | CC[C@H]1CCc2nnc(-c3cccc(N4Cc5c(cc(N(C)C(C)C)nc5[C@@H](C)N)C4=O)n3)n21 [Example 4, 4-[(1R)-1-aminoethyl]-2-{6-[(5S)-5-ethyl-6,7-dihydro-5H-pyrrolo[2,1-c][1,2,4]triazol-3-yl]pyridin-2-yl}-6-[methyl(propan-2-yl)amino]-2,3-dihydro-1H-pyrrolo[3,4-c]pyridin-1-one] | 36 nM | 25.8 nM | >520 | 217 nM | >4304 | < 0.05 nM
2 | CCn1cnnc1-c1cccc(N2Cc3c(cc(N4CCC[C@H]4C)nc3C(C)(C)N)C2=O)n1 [Example 100, 4-(2-aminopropan-2-yl)-2-[6-(4-ethyl-4H-1,2,4-triazol-3-yl)pyridin-2-yl]-6-[(2R)-2-methylpyrrolidin-1-yl]-2,3-dihydro-1H-pyrrolo[3,4-c]pyridin-1-one] | 39 nM | 15.5 nM | >320 | 51.2 nM | >1020 | < 0.05 nM
3 | CC[C@H]1CCc2nnc(-c3cccc(N4Cc5c(cc(N6CCC[C@H]6C)nc5CNC)C4=O)n3)n21 [Example 200, 2-{6-[(5S)-5-ethyl-6,7-dihydro-5H-pyrrolo[2,1-c][1,2,4]triazol-3-yl]pyridin-2-yl}-4-[(methylamino)methyl]-6-[(2R)-2-methylpyrrolidin-1-yl]-2,3-dihydro-1H-pyrrolo[3,4-c]pyridin-1-one] | 16 nM | 10.1 nM | >200 | 7.97 nM | >160 | < 0.05 nM
4 | CC[C@H]1CCc2nnc(-c3cccc(N4Cc5c(cc(N(C)C(C)C)nc5CNC)C4=O)n3)n21 [Example 201, 2-{6-[(5S)-5-ethyl-6,7-dihydro-5H-pyrrolo[2,1-c][1,2,4]triazol-3-yl]pyridin-2-yl}-4-[(methylamino)methyl]-6-[methyl(propan-2-yl)amino]-2,3-dihydro-1H-pyrrolo[3,4-c]pyridin-1-one] | 37 nM | 6.73 nM | >134 | 5.43 nM | >108 | < 0.05 nM
5 | CNCc1nc(N2CCC[C@H]2C)cc2c1CN(c1cccc(-c3nnc4n3[C@@H](CF)CC4)n1)C2=O [Example 202, 2-{6-[(5R)-5-(fluoromethyl)-6,7-dihydro-5H-pyrrolo[2,1-c][1,2,4]triazol-3-yl]pyridin-2-yl}-4-[(methylamino)methyl]-6-[(2R)-2-methylpyrrolidin-1-yl]-2,3-dihydro-1H-pyrrolo[3,4-c]pyridin-1-one] | 25 nM | 40.1 nM | 667 | 6.54 nM | 108 | 0.06 nM

— patent publication US11684616B2, “Azalactam compounds as HPK1 inhibitors” (PFIZER INC., priority 2020, dated 2023)
